Reference: patent US20230266303A1, “SYSTEM” (GTINVENT LIMITED, priority 2020, published 2023)
Values joined by “and” are separate entries in the source; they are usually repeats but may differ in a detail not shown here. Identical values can stand only once. “Also recorded” adds a separate entry of the source.

System: endogenous tau in dSH-SY5Y cells
Experiment: Western blot of whole lysate and Triton X-100 sequential extraction of endogenous tau
Assay type: cell-based, human
Conditions: 24 h
Description: Cells were detached from the coverslip by incubation in 0.25% trypsin-EDTA (Gibco™) and then mixed with 5 ml culture media. The cells were harvested by centrifugation at 500×g for 5 minutes and the supernatant was discarded. The cell pellet was resuspended in ice-cold PBS and centrifuged at 500×g at 4° C. Cells were lysed in 1% Triton lysis buffer (1% Triton X-100 (v/v), 150 mM NaCl and 50 mM Tris-HCl, pH 7.6) containing Halt™ protease inhibitors (Thermo Scientific) and phosphatase inhibitors (Thermo Scientific) for 15 minutes on ice. The samples were centrifuged at 16,000×g for 30 minutes at 4° C., and the supernatant was collected (Triton-soluble fraction). The pellet was resuspended in SDS lysis buffer (1% SDS (w/v), 150 mM NaCl and 50 mM Tris-HCl, pH 7.6) containing protease and phosphatase inhibitors. The samples were centrifuged at 16,000×g for 30 minutes at room temperature and the supernatant was collected (Triton-insoluble fraction). Protein concentration in the Triton-soluble fractions were determined using the Pierce™ BCA Protein Assay Kit (Thermo Scientific) according to the manufacturer's instructions.
For cell lysates, Triton-soluble protein (20 μg) and an equal volume of Triton-insoluble protein were each mixed with Læmmli sample buffer (4×) (Bio-Rad Laboratories) containing 5% (v/v) […] and heated at 95° C. for 5 minutes. For recombinant protein, 3 μg was mixed with sample buffer without reducing agent or boiling. All samples were centrifuged for five minutes at 1000×g and samples were loaded onto 4-20% Mini-PROTEAN® precast gels (Bio-Rad Laboratories) and run at 120 V for 1 h in Tris-glycine running buffer (25 mM Tris, 192 mM glycine, pH 8.3), or until the sample buffer reached the end of the gel. For Coomassie staining, the gel was washed three times in double distilled water for five minutes and stained with Imperial™ protein stain (Thermo Scientific) for 1 h and then destained overnight in double distilled water. The stained gel was scanned using an HP Photosmart C5280 scanner. For western blotting, the separated proteins on the gel were transferred to nitrocellulose membrane (0.45 μm) at 200 mA for 90 minutes. The membranes were blocked in 5% (w/v) bovine serum albumin (BSA) in Tris-buffered saline (50 mM Tris-HCl, pH7.4, 150 mM NaCl) containing 0.1% (v/v) Tween-20 (TBS-T) for 1 h rocking at room temperature. Membranes were incubated with primary antibodies diluted in 5% BSA in TBS-T overnight at 4° C. The following primary antibodies and dilutions were used; Anti-Tau (polyclonal, total tau) (Thermo Scientific) (1:2500), AT180 (anti-pT231) (Thermo Scientific) (1:1000), AT8 (anti-pS202-T205) (1:1000) (Thermo Scientific), anti-GAPDH (1:5000) (Abcam). […] Immunoreactive protein bands were detected using ECL substrate (Clarity™, Bio-Rad) and X-ray films were scanned using an HP Photosmart C5280 scanner. FIJI was used to quantify the bands in arbitrary densitometry units. The density of bands corresponding to full-length tau (50-70 kDa) were determined and normalised against amount of GAPDH. […] For the quantification of Triton-insoluble and soluble protein, the proportion of tau in the insoluble and soluble fraction was calculated using the equations insoluble/(soluble+insoluble) or soluble/(soluble+insoluble), respectively and expressed as a percentage of the respective soluble or insoluble control value. […]

[1] = whole lysate (RIPA), 1 μM soluble dGAE

With “dGAE: recombinant truncated tau, 95 residues fragment of Tau (2N4R), Ile-297 to Glu-391, SEQ ID NO: 4” the “proportion of AT180 tau in Triton-X 100 insoluble fraction, percentage of buffer-treated controls” value (soluble dGAE, buffer 100±0) was 139.4±14.54% and 139.4±14.5%, the “proportion of AT180 tau in Triton-X 100 soluble fraction, percentage of buffer-treated controls” value (soluble dGAE, buffer 100±0) was 82.98±5.48% and 83.0±5.5% and the “AT8 immunoreactivity vs buffer-treated control (western blot)” value [1] was “no significant difference; also recorded: marginal increases”. For the same substance, the “AT180 immunoreactivity vs buffer-treated control (western blot)” value [1] was “no significant difference; also recorded: marginal increases” and the “total tau immunoreactivity vs buffer-treated control (western blot)” value [1] was “no significant difference; also recorded: no change”.
